Blank lines part the entries; values can stand above or below the compound they belong to.
How the values were obtained:
[1] = Solubility evaluation of diols containing an acid group in NMP or DPGDME; format: physicochemical; for Solubility, DMBA in DPGDGME (75° C.): key: An entry of 'Yes' indicates completely soluble; an entry of 'No' means not fully soluble; for Solubility, DMBA in NMP (25° C.): key: An entry of 'Yes' indicates completely soluble; an entry of 'No' means not fully soluble; for Solubility, DMPA in DPDGME (95° C.): key: An entry of 'Yes' indicates completely soluble; an entry of 'No' means not fully soluble; for Solubility, DMPA in NMP (25° C.): key: An entry of 'Yes' indicates completely soluble; an entry of 'No' means not fully soluble
Experimental: The solubility of certain diols containing an acid group (2,2-dimethylolpropionic acid (DMPA) and 2,2-dimethylolbutanoic acid (DMBA)) in dipropylene glycol dimethyl ether (DPGDME) and in N-methyl-2-pyrrolidone (NMP) are evaluated at different temperatures. The DPGDME used is PROGLYDE™ DMM (The Dow Chemical Company). The following concentrations with corresponding amounts of DMPA or DMBA and of solvent (DPGDME or NMP) are evaluated:
Using a 30 milliliter glass vial with a 24-mm black phenolic screw cap with poly seal liner from Fisher, the […] (DMBA or DMPA) is added at 5 wt. %, 10 wt. %, 15 wt. %, 20 wt. %, and 25 wt. % in the solvent (NMP or DPGDME) as specified in Table 1. Samples are heated on a high throughput heating/mixing station from 25° C. to 100° C. in 10° C. increments while mixing at 500 rpm with a magnetic stir bar. Samples are then removed an image is taken to record solubility.

[2] = animal testing; cited from earlier work

Solubility, DMBA in DPGDGME (75° C.) ([1]; 5 weight % in DPGDGME, 75° C.): Yes
Solubility, DMBA in NMP (25° C.) ([1]; 5 weight % in NMP): Yes
Solubility, DMBA in DPGDGME (75° C.) ([1]; 10 weight % in DPGDGME, 75° C.): Yes
Solubility, DMBA in NMP (25° C.) ([1]; 10 weight % in NMP): Yes
Solubility, DMBA in DPGDGME (75° C.) ([1]; 15 weight % in DPGDGME, 75° C.): Yes
Solubility, DMBA in NMP (25° C.) ([1]; 15 weight % in NMP): Yes
Solubility, DMBA in DPGDGME (75° C.) ([1]; 20 weight % in DPGDGME, 75° C.): Yes
Solubility, DMBA in NMP (25° C.) ([1]; 20 weight % in NMP): Yes
Solubility, DMBA in DPGDGME (75° C.) ([1]; 25 weight % in DPGDGME, 75° C.): Yes
Solubility, DMBA in NMP (25° C.) ([1]; 25 weight % in NMP): Yes
Solubility in DPGDME ([1]; 75° C.): fully dissolve
Solubility in both solvents tested (NMP and DPGDME) ([1]; all concentrations up to 25 weight %, varying temperatures): soluble
SMILES: CCC(CO)(CO)C(=O)O [DMBA, 2,2-dimethylolbutanoic acid]

Solubility, DMPA in DPDGME (95° C.) ([1]; 5 weight % in DPDGME, 95° C.): No
Solubility, DMPA in NMP (25° C.) ([1]; 5 weight % in NMP): Yes
Solubility in DPGDGME ([1]; 5 weight %, 95° C.): not fully soluble
Solubility, DMPA in DPDGME (95° C.) ([1]; 10 weight % in DPDGME, 95° C.): No
Solubility, DMPA in NMP (25° C.) ([1]; 10 weight % in NMP): Yes
Solubility, DMPA in DPDGME (95° C.) ([1]; 15 weight % in DPDGME, 95° C.): No
Solubility, DMPA in NMP (25° C.) ([1]; 15 weight % in NMP): Yes
Solubility, DMPA in DPDGME (95° C.) ([1]; 20 weight % in DPDGME, 95° C.): No
Solubility, DMPA in NMP (25° C.) ([1]; 20 weight % in NMP): Yes
Solubility, DMPA in DPDGME (95° C.) ([1]; 25 weight % in DPDGME, 95° C.): No
Solubility, DMPA in NMP (25° C.) ([1]; 25 weight % in NMP): Yes
Solubility in DPGDME (overall) ([1]; in DPGDME): poor
Solubility in NMP ([1]; room temperature (25° C.), all concentrations up to 25 weight %, upon mixing in NMP): completely soluble
SMILES: CC(CO)(CO)C(=O)O [DMPA, 2,2-dimethylolpropionic acid]

SMILES: CN1CCCC1=O [NMP, N-methyl-2-pyrrolidone]
Reproductive toxicity [2]: shows reproductive toxicity
